The results in this text go back to paper PMC8654833 (Scientific Reports, 2021).

The target of one assay is Ca^2+ channel, ds. The experiment in a line: Radioligand binding competition dose-response (Euroscreen), Ca2+ channel diltiazem site. As for the experimental part:
(§1) This study included binding assays (87 GPCR targets), measured as % of binding inhibition of a reference radioligand, as well as uptake and enzyme assays (19 targets), the latter measured as % inhibition of control enzyme activity. […] It was performed by radioligand binding competition by Euroscreen (Euroscreen FAST, Belgium). The following nanomolar concentrations were tested in duplicate: 0.001, 0.01, 0.1, 1, 10, 100, 1000, 10,000. Dose–response curves were fitted with the least squares method. IC50 results are shown as pIC50, corresponding to the negative log10 of IC50 in molar.

A further assay concerns the target T1, DAT (Homo sapiens, UniProt Q01959).
T1 construct: Euroscreen FAST (contract assay)
The experiment in a line: Radioligand binding competition dose-response (Euroscreen), dopamine transporter. The note with it: dose-response study, maximal concentration 10 µM, [3H]WIN 35,428; read-out: %Binding inhibition at 10 µM. As for the experimental part:
as §1

The target in a further assay is 5-HT2A (Homo sapiens, UniProt P28223). The experiment in a line: biochemical. The note with it: read-out: %Binding inhibition at 10 µM. How it is done: as §1
Another assay has as its target T2, 5-HT5A (Homo sapiens, UniProt P47898).
T2 construct: Euroscreen FAST (contract assay)
The experiment in a line: Radioligand binding competition dose-response (Euroscreen), 5-HT5A. The note with it: dose-response study, maximal concentration 10 µM, [3H]LSD. As for the experimental part: as §1

In the next assay the target is Ca^2+ channel, vs. Nature of the assay: Radioligand binding competition dose-response (Euroscreen), Ca2+ channel verapamil site. How it is done: as §1

T2 sequence (P47898 whole entry, species assumed): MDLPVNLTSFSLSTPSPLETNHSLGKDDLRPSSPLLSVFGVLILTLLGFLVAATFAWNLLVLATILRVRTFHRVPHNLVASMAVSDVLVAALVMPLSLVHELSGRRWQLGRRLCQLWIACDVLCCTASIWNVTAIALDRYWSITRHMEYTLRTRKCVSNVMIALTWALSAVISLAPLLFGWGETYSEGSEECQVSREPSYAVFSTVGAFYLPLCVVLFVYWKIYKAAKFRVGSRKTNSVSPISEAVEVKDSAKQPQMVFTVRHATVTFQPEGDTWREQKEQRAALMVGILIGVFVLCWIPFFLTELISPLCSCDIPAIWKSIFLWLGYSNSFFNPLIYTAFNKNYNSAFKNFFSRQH
T1 sequence (Q01959 whole entry, species assumed): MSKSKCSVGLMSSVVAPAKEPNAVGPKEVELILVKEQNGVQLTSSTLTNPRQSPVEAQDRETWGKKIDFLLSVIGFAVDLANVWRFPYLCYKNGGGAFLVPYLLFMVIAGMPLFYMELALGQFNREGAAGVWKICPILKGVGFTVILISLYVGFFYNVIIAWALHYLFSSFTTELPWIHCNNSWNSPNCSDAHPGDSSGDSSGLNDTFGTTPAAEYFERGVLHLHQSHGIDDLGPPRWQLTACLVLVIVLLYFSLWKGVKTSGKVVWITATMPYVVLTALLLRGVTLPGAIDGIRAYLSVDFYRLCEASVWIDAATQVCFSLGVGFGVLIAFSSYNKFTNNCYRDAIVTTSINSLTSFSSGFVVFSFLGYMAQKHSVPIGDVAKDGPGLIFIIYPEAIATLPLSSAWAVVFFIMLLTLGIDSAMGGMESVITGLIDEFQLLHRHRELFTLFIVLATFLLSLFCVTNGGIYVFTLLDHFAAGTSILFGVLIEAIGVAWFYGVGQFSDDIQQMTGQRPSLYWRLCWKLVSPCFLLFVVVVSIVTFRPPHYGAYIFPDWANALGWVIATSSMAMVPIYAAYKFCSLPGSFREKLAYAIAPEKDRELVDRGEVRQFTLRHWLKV
Chain of 5-HT2A (P28223 whole entry, species assumed): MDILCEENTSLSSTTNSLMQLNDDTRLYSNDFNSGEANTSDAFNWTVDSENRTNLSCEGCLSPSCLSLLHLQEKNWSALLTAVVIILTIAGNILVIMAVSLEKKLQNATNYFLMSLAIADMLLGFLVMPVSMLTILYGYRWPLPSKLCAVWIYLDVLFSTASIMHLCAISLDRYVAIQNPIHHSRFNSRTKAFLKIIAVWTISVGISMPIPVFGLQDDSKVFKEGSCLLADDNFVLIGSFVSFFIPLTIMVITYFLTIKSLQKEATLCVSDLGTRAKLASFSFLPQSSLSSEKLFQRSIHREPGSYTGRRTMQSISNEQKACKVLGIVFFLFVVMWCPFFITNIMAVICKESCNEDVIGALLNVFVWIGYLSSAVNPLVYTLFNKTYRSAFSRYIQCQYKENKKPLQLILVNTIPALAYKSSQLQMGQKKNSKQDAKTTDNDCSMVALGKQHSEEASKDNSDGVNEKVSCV

`COc1ccc([C@@H]2Sc3ccccc3N(CCN(C)C)C(=O)[C@@H]2OC(C)=O)cc1` [Diltiazem]: the pIC50 on Ca^2+ channel, ds ([3H]diltiazem competition) turned out to be 4.79. Also, the “%Binding inhibition at 10 µM” value in the assay with Ca^2+ channel, ds (dose-response study, maximal concentration 10 µM, [3H]diltiazem) is 116.63%. As to `Fc1ccc(C(OCCN2CCN(CCCc3ccccc3)CC2)c2ccc(F)cc2)cc1` [GBR 12909], the inhibition at 10 µM at DAT is 104%. Take `O=C(c1ccc(F)cc1)C1CCN(CCn2c(=O)[nH]c3ccccc3c2=O)CC1` [Ketanserin]: the inhibition at 10 µM on 5-HT2A worked out at 103%. For the compound `CSc1ccc2c(c1)C(N1CCN(C)CC1)Cc1ccccc1S2` (stereo not shown) [Methiothepin], on 5-HT5A, the “%Binding inhibition at 10 µM” value amounted to 101.21%. The compound `COc1ccc(CCN(C)CCCC(C#N)(c2cc(OC)c(OC)c(OC)c2)C(C)C)cc1OC` (stereo not shown) [Methoxyverapamil] had a pIC50 on Ca^2+ channel, vs ([3H]D888 competition) of 6.56. Further, the “%Binding inhibition at 10 µM” value in the assay on Ca^2+ channel, vs (dose-response study, maximal concentration 10 µM, [3H]D888) was 112.06%.
